“Also recorded” adds a separate entry of the source. Read-outs that look alike come from different tables or passages of the source. Each block holds one compound with its values, some of them ahead of it.
Legend:
wnt activity [1] = experiment: wnt reporter TOP:dGFP zebrafish embryos; type: in vivo; details: vs control
Excerpt: Clinical experience in patients with APC mutations has shown that inhibition of prostaglandin synthesis results in decreased wnt mediated polyp formation. […] These interactions were examined in vivo using a wnt reporter zebrafish transgenic line, TOP:dGFP. At fifty-percent epiboly, embryos were subjected either to nothing (control), indomethacin, or PGE2, and the amount of wnt signaling activated in the embryo assessed by GFP induction driven from the wnt binding site. Analysis of alterations in GFP expression in the head was analyzed by in situ hybridization. […] FIG. 12.

runx1/cmyb+ AGM HSCs [2] = details: for effect on AGM HSCs in zebrafish embryos (in words): exposure from three somites to 36 hpf, runx1/cmyb staining
Description: A chemical genetic screen was conducted to identify novel pathways that modulate definitive HSC formation during zebrafish embryogenesis. FIG. 1. Genes such as runx1 and cmyb, required for HSC development during mammalian hematopoiesis, are expressed in the ventral wall of the dorsal aorta in a region analogous to the mammalian AGM at thirty-six hours post-fertilization (hpf). […] Wild-type embryos were incubated with individual compounds from the three-somite stage until thirty-six hpf. Probes for runx1 and cmyb were combined and utilized to detect HSCs by in situ hybridization.
Wild-type age-matched embryos were arrayed into 48-well plates (˜5 embryos/well) of individual test compounds and exposed from 3-somites until 36 hpf. […] In situ hybridization for runx1 and cmyb was performed to assess HSCs. Compounds were retested at 10 μM, 20 μM, and 50 μM. Stem cell specificity was assessed using flk1 at 36 hpf. PGE2, PGI2, dmPGE2 and all cox inhibitors (Sigma) were used at 10 μM to 20 μM.
Qualitative scoring (# embryos with altered HSCs/# scored) of runx1/cmyb was conducted using the following criteria: Normal/unchanged=continuous line of runx1/cmyb+ endothelial cells and occasional hematopoietic clusters. Decreased/absent=reduction in runx1/cmyb+ cells, including the presence of large gaps in the line of HSCs, isolated positive cells, or absence of expression. Increased/excess=enhancement in runx1/cmyb^+ cells, including many HSC clusters, a thickened line of HSCs, or ectopic expression.

wnt activity [3] = experiment: wnt activity in the AGM of TOP:gal mice; details: mouse, in vivo
vasculature (flk1) = system: vasculature (flk1)
Description: Wild-type age-matched embryos were arrayed into 48-well plates (˜5 embryos/well) of individual test compounds and exposed from 3-somites until 36 hpf. Three compound libraries were utilized: NINDS Custom Collection (1040), SpecPlus Collection (960) and BIOMOL ICCB Known Bioactives (480). […] In situ hybridization for runx1 and cmyb was performed to assess HSCs. Compounds were retested at 10 μM, 20 μM, and 50 μM. Stem cell specificity was assessed using flk1 at 36 hpf. PGE2, PGI2, dmPGE2 and all cox inhibitors (Sigma) were used at 10 μM to 20 μM.

[4] = system: kidney marrow precursor cell population; experiment: Kidney marrow recovery after irradiation in heat shock wnt transgenic adults treated with PG drugs; type: in vivo, zebrafish; details: hs:wnt8-GFP adults, day ten post-irradiation
Description: An irradiation recovery assay was also employed to investigate the role of wnt signaling in hematopoietic homeostasis in zebrafish. Transgenic fish expressing wnt-related genes were sublethally irradiated and heat shock gene induction was initiated by overnight incubation at 38° C. on day two post-irradiation. Kidney marrow was harvested at various timepoints post-irradiation as outlined previously for the prostaglandin experiments. FIG. 11. […] Inhibition of wnt signaling, by heat shock dkk or dnTCF, drastically alters the kinetics of marrow recovery and can result in the complete failure of marrow regeneration and lethality.
(§1) To determine if prostaglandin pathway manipulation can alter wnt activity in the kidney marrow repopulation in the adult, the effects of dmPGE2 and indomethacan was examined further in Top:dGFP lines. […] FIG. 14. To discern whether modulation of prostaglandin signaling can modify the wnt mediated effects on kidney marrow recovery following irradiation, wnt genes were activated by heat shock at 38° C. at two days post irradiation and then. exposure to prostaglandin pathway drugs at one day post heat shock. The hs:wnt8-GFP fish were exposed to indomethacin, while the dkk1, axin, and dnTCF transgenic fish were exposed to dmPGE2. Whole kidney marrow was analyzed by FACS on day ten post-irradiation.

cmyb/lmo2+ HSCs = experiment: Confocal quantification of HSCs in cmyb:GFP x lmo2:dsRed bigenic embryos; type: in vivo, zebrafish; details: 36 hpf live embryos
Description: A long-acting derivative, 16,16-dimethyl-PGE2 (dmPGE2, 10 μM) caused an increase in runx1/cmyb+ AGM HSCs in 78% of embryos examined (97/124). AGM HSCs were inhibited by indomethacin (10 μM) treatment in 90% of embryos analyzed (92/102). […] Transgenic cmyb:GFP zebrafish with green fluorescent HSCs and myeloid progenitor cells were crossed to lmo2:dsRed fish that have red fluorescent endothelial cells and HSCs to visualize the effects of chemical exposure in vivo. […] FIG. 3.
Live 36 hpf treated bigenic zebrafish embryos were embedded in 1% low-melting point agarose containing 0.4 mg/ml Tricaine-S for confocal imaging. cmyb-GFP transgenic reporter lines were created from a BAC containing the cmyb promoter genomic sequence (Galloway, Zhu, Lin, Zon, unpublished); lmo2:DsRed fish were created as described^27. For HSC quantification, cmyb/lmo2+ positive cells were counted in projections of z-stack images (n=10/treatment).

runx1/cmyb+ AGM HSCs [5] = experiment: Heat shock wnt-pathway transgenic embryos treated with PG drugs: AGM HSC formation; type: in vivo, zebrafish; details: hs:wnt8 embryos heat shocked at five somites
Description: More specifically, Wnt signaling through its main transcriptional mediator β-catenin plays an important role in controlling tissue patterning, cell fate decisions, and proliferation in many embryonic contexts, including the development and differentiation of organs. […] Whether wnt signaling has a role during HSC formation in zebrafish was determined using heat shock inducible activators and repressors of the wnt pathway. Briefly, wnt-inducible embryos were harvested and heat shocked for twenty minutes at 38° C. Genotypes were sorted by GFP expression, and the AGM HSCs analyzed by runx1/cmyb expression in situ. […] This is the first evidence in any organism that wnt signaling is required for AGM HSC formation.
Additionally, indomethacin and dmPGE2 was used to investigate the interaction of the wnt and prostaglandin pathways during HSC development and in marrow recovery following injury. FIG. 13 reflects the potential points of interaction of the PG and wnt pathways. […] Furthermore, dmPGE2 can rescue the inhibitory effects of dkk activation on AGM HSC formation at 36 hpf, as shown by in situ hybridization for runx1/cmyb.

mouse ES cells = experiment: ES cell hematopoietic differentiation assays (M3434 methylcellulose and OP9 colony assays); type: cell-based; details: indomethacin 20 μM (OP9) and 100 μM (GM)
Description: ES cell hematopoietic differentiation assays were performed as previously described. […] M3434 methylcellulose colony forming and OP9 colony assays were conducted on day 6 and analyzed at […], respectively. Colony type was identified by morphological analysis; duplicate chemical exposures were averaged to determine the reported colony number (n=3 replicates minimum).

runx1, cmyb expression = experiment: qPCR of HSC gene expression in treated zebrafish embryos; type: in vivo
wnt activity [6] = experiment: wnt activity in kidney marrow of irradiated Top:dGFP adults; type: in vivo, zebrafish; details: day three post irradiation
Description: as §1

[7] = system: CFU-S from murine bone marrow cells; experiment: Murine colony-forming units-spleen (CFU-S); type: in vivo, mouse
Description: Two independent BM samples were treated (n=5/treatment×2 replicates) for each variable. Recipient mice were lethally irradiated with a split dose of 10 Gy. 6×10^4 unfractionated dmPGE2 or control-treated BM cells were injected retro-orbitally into irradiated recipient mice. Spleens were dissected on day eight or twelve, weighed and fixed with Bouin's solution; hematopoietic colonies per spleen were counted. 1×10^5 cells/recipient were transplanted after treatment with the cox inhibitors. FACS sorted ckit^+sca1^+lineage^− BM cells were treated as above and transplanted at a dose of either 100 cells/recipient or 300 cells/recipient.

PGE2 formation = experiment: HPLC-tandem mass spectrometry of PGE2 in zebrafish embryos; type: in vivo; details: 36 hpf embryos, n=3; untreated 18+/−6
Description: PGE2 and the stable PGI2 metabolite, 6-keto-PGF1α, were measured using HPLC-tandem mass spectrometry. Ethylacetate extracts from homogenized embryos were spiked with the corresponding stable isotope labeled internal standards (d4-PGE2 and d4-6-keto PGF1α) and allowed to react with methoxylamine. The following mass transitions were monitored: m/z 384→272 (PGE), m/z 398→368 (6-keto PGF1α and TxB2).

[8] = system: kidney marrow (KM) hematopoietic lineages; experiment: Kidney marrow irradiation recovery assay in adult zebrafish; details: 10 μM, irradiated adult zebrafish
Description: Wild-type fish were sublethally irradiated, exposed to dmPGE2, and evaluated for kinetics of KM recovery by FACS 11 (FIG. 4A).
Adult zebrafish were exposed to 23 Gy of γ-irradiation. […] Whole KM isolated on days 0, 2, 4, 7, 10, 14 was subjected to FSC/SSC FACS analysis to identify hematopoietic lineages (n=5/treatment×3 replicates).

[9] = system: peripheral blood and bone marrow WBC; experiment: 5-Fluorouracil bone marrow injury; type: in vivo, mouse; details: in vivo exposure, IP, 1 mg/kg
Description: Mice were treated with 5-FU (150 mg/kg) as described. Venezia et al., 2004. […] Peripheral blood was obtained on day seven and day fourteen, quantified and subjected to multilineage FACS analysis using antibodies (eBioscience) to B220/IgM (B-lymphoid), CD4/8 (T-lymphoid), Mac1/Gr1 (myeloid), Ter119/CD71 (erythroid) and ckit/sca1 (stem/progenitor). Mice were sacrificed on day 16, and bone marrow was isolated, quantified and analyzed by FACS.

[10] = system: ES cell-derived embryoid bodies; experiment: Hematopoietic colonies from ES cell-derived embryoid bodies treated with DEAB or RA; type: cell-based, mouse; details: added to EBs between days two to three
Excerpt: DEAB and RA also affected the formation of mouse hematopoietic progenitors arising from ES cell-derived embryoid bodies (EBs). […] See also Davidson et al., 425 Nature 300-06 (2003); Davidson & Zon, 292(2) Devel. Biol. 506-18 (2006).

embryonic hematopoiesis = experiment: RA / DEAB treatment of wild-type and kgg zebrafish embryos; type: in vivo

SMILES: CCCCC[C@H](O)/C=C/[C@H]1[C@H](O)CC(=O)[C@@H]1C/C=C\CCCC(=O)O [PGE2, prostaglandin E2]
wnt activity (GFP expression) in TOP:dGFP embryos (wnt activity [1]): markedly enhanced wnt activity
increased runx1/cmyb expression (# embryos altered/# scored) (runx1/cmyb+ AGM HSCs [2]; 20 μM, 36 hpf): 25/49
effect on AGM HSCs in zebrafish embryos (in words) (runx1/cmyb+ AGM HSCs [2]): stronger expression of runx1/cmyb than PGI2; also recorded: increase moderately
wnt activity in the AGM of TOP:gal mice (wnt activity [3]): induced wnt activity

SMILES: CCCCC/C=C\C/C=C\CCCCCCCC(=O)O [Linoleic Acid]
Effect on HSC expression (# embryos altered/# embryos scored) (runx1/cmyb+ AGM HSCs [2]; Table 1, runx1/cmyb+ HSCs, zebrafish embryos, 36 hpf): Increase (22/30)
effect on AGM HSCs in zebrafish embryos (in words) (runx1/cmyb+ AGM HSCs [2]): upregulated HSC formation
effect on vasculature / flk1 staining (in words) (vasculature (flk1); zebrafish embryos, 36 hpf): remained relatively unchanged

embryos with slightly altered intersomitic vessels (vasculature (flk1); zebrafish, in vivo, 10 μM): 30%
embryos with slightly altered intersomitic vessels (# altered/# examined) (vasculature (flk1); zebrafish, in vivo, 10 μM): 15/49
SMILES: COc1ccc2c(c1)c(CC(=O)O)c(C)n2C(=O)c1ccc(Cl)cc1 [Indomethacin]
effect on wnt-mediated enhancement of the kidney marrow precursor cell population ([4]; listed as Indo): blocked
effect on wnt-mediated enhancement of the kidney marrow precursor cell population ([4]; listed as indomethacin): severely diminish
HSC numbers along the floor of the aorta by confocal microscopy (in words) (cmyb/lmo2+ HSCs): significantly decreased numbers of HSCs
wnt activity (GFP expression) in TOP:dGFP embryos (wnt activity [1]; listed as indo): virtual absence of wnt activity
wnt activity (GFP expression) in TOP:dGFP embryos (wnt activity [1]; listed as indomethacin): severely reduced GFP expression
effect on wnt8-mediated enhancement of runx1/cmyb expression / HSC induction (runx1/cmyb+ AGM HSCs [5]; listed as indo): reversed
effect on wnt8-mediated enhancement of runx1/cmyb expression / HSC induction (runx1/cmyb+ AGM HSCs [5]; listed as indomethacin): can be blocked
colony growth (mouse ES cells): inhibited colony growth
cmyb expression by qPCR (in words) (runx1, cmyb expression; 10 μM): significant alterations
runx1 expression by qPCR, reduction (runx1, cmyb expression; indomethacin 10 μM): 50%
wnt activity (GFP) in kidney marrow of Top:dGFP adults (wnt activity [6]): inhibited GFP expression
number of CFU-S12, decrease ([7]; WBM ex vivo 1 μM/10^6 cells, 1×10^5 cells transplanted): 70%
CFU-S12 Colony Number ([7]; Whole Marrow, 100000 cells transplanted, 1 μM/10^6 cells ex vivo, EtOH 8.8 (2.1)): 2.5 (1.4)
PGE2 formation after treatment (PGE2 formation): < 2 pg/50 embryos
embryos with AGM HSCs inhibited (runx1/cmyb+ AGM HSCs [2]; 10 μM): 90%
decreased runx1/cmyb+ HSCs (# embryos altered/# scored) (runx1/cmyb+ AGM HSCs [2]; 10 μM, 36 hpf): 92/102
effect on AGM HSCs in zebrafish embryos (in words) (runx1/cmyb+ AGM HSCs [2]): reduced stem cells in the aorta

SMILES: CS(=O)(=O)Nc1ccc([N+](=O)[O-])cc1OC1CCCCC1 [NS398]
survival of irradiated fish to day fourteen [8]: excessive death
CFUS activity under selective cox inhibition ([7]; CFUS12, WBM treated ex vivo): significantly alter CFUS activity
peripheral blood (day 14) and bone marrow (day 16) WBC counts after 5-FU injury [9]: significantly inhibited WBC recovery
decreased runx1/cmyb+ HSCs (# embryos altered/# scored) (runx1/cmyb+ AGM HSCs [2]; 20 μM, 36 hpf): 35/44
effect on AGM HSCs in zebrafish embryos (in words) (runx1/cmyb+ AGM HSCs [2]): reduced stem cells in the aorta

SMILES: CCN(CC)c1ccc(C=O)cc1 [DEAB]
increase in 'primitive' erythroid colonies (CFU-Ep) [10]: five-eight fold
erythroid cells in wild-type embryos (embryonic hematopoiesis): induced an expansion of erythroid cells
expression of hoxa9a in kgg embryos (embryonic hematopoiesis): failed to rescue
hematopoiesis in kgg mutants (embryonic hematopoiesis): restored hematopoiesis

From patent US10272110B2, “Methods for promoting HSC engraftment” (CHILDREN'S MEDICAL CENTER CORPORATION, priority 2006, dated 2019)
